Results reported in PubChem BioAssay (NCI).
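Interpolation was linear, between the two tested concentrations surrounding the appropriate level; five concentrations were tested over 48 hours in 96-well plates. GI50 marks 50% less growth. TGI marks complete inhibition of growth.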

Experiments:
Assay in all cases: growth of human tumour cells (NCI), 48 h
MDA-MB-231 breast = system: MDA-MB-231 breast
COLO 205 colon = system: COLO 205 colon
MDA-MB-435 = system: MDA-MB-435
SR leukemia = system: SR leukemia
EKVX NSCLC = system: EKVX NSCLC
MCF7 breast = system: MCF7 breast
MOLT-4 leukemia = system: MOLT-4 leukemia
RPMI-8226 leukemia = system: RPMI-8226 leukemia
DU-145 prostate = system: DU-145 prostate
HCT-116 colon = system: HCT-116 colon

Row | SMILES | GI50 (MDA-MB-231 breast) | TGI (MDA-MB-231 breast) | GI50 (COLO 205 colon) | TGI (COLO 205 colon) | GI50 (MDA-MB-435) | TGI (MDA-MB-435) | GI50 (SR leukemia) | TGI (SR leukemia) | GI50 (EKVX NSCLC) | TGI (EKVX NSCLC) | GI50 (MCF7 breast) | TGI (MCF7 breast) | GI50 (MOLT-4 leukemia) | TGI (MOLT-4 leukemia) | GI50 (RPMI-8226 leukemia) | TGI (RPMI-8226 leukemia) | GI50 (DU-145 prostate) | TGI (DU-145 prostate) | GI50 (HCT-116 colon) | TGI (HCT-116 colon)
1 | CCCCCCNC(=O)Oc1ccc(/C(=C(\C)c2ccc(Cl)cc2)c2ccc(OCCN3CCCCC3)cc2)cc1 | 5.35 µM | 10.2 µM | 1.44 µM | 6.44 µM | 3.73 µM | 7.98 µM | 0.727 µM | 2.14 µM | 5.04 µM | 14.4 µM | 0.104 µM | 5.38 µM | 1.47 µM | 23.3 µM | 1.84 µM | 9.68 µM | 6.26 µM | 16.4 µM | 0.962 µM | 4.78 µM
2 | Cn1cc(C2=C(c3cccc(OC[C@@H](O)CO)c3)C(=O)NC2=O)c2ccccc21 | > 25 µM | > 25 µM | > 18.3 µM | > 25 µM | > 25 µM | > 25 µM | > 11.2 µM | > 25 µM | – | – | 2.07 µM | > 25 µM | 16.1 µM | > 25 µM | > 25 µM | > 25 µM | > 25 µM | > 25 µM | > 15.8 µM | > 25 µM
3 | CN(CCNCc1ccccn1)CCNCc1ccccn1 | 2.56 µM | 5.93 µM | 2.53 µM | 6.02 µM | 2.21 µM | 4.93 µM | 3.71 µM | 43 µM | 3.01 µM | 12.3 µM | 3.08 µM | 10.9 µM | 3.61 µM | > 100 µM | 3.41 µM | 67.6 µM | 3.6 µM | 12.4 µM | 2.18 µM | 4.7 µM
4 | Cc1cccc2c3c(sc12)C(c1ccc(Cl)cc1)C(C#N)=C(N)O3 (configuration not stated) | 0.679 µM | 7.74 µM | 0.435 µM | 4.52 µM | 0.182 µM | 0.42 µM | 0.452 µM | > 33.9 µM | 0.57 µM | 17.8 µM | 0.257 µM | 4.64 µM | 0.497 µM | 13.7 µM | 0.423 µM | 6.33 µM | 0.459 µM | 11.6 µM | 0.389 µM | 4.95 µM
5 | N#CCN1CCn2c1nsc2=S | > 100 µM | > 100 µM | 85.5 µM | > 100 µM | > 100 µM | > 100 µM | 1.09 µM | 24.1 µM | > 100 µM | > 100 µM | 55.3 µM | > 100 µM | 5.1 µM | > 100 µM | > 100 µM | > 100 µM | > 100 µM | > 100 µM | > 100 µM | > 100 µM
6 | C[C@]12CC[C@@H]3c4cc(OC(F)F)c(OS(N)(=O)=O)cc4CC[C@H]3[C@@H]1CC[C@@H]2O | 1.62 µM | 15.5 µM | 0.653 µM | 13.9 µM | 0.209 µM | 0.603 µM | 0.303 µM | > 100 µM | 0.709 µM | 54.8 µM | 0.39 µM | 20.8 µM | 0.641 µM | > 64.4 µM | 0.449 µM | 21.9 µM | 0.49 µM | > 100 µM | 0.434 µM | 15 µM
7 | CCC1(O)C(=O)OCc2c1cc1n(c2=O)Cc2cc3c(NC(=O)CN)cccc3nc2-1 (configuration not stated) | 58.1 µM | > 100 µM | 5 µM | 46.6 µM | 5.4 µM | > 70 µM | 0.0262 µM | 0.183 µM | 19.7 µM | > 88.2 µM | 0.181 µM | > 43.2 µM | 0.0438 µM | 1.13 µM | 1.69 µM | 40.3 µM | 0.348 µM | > 20.2 µM | 1.01 µM | > 62.5 µM
8 | COc1cc2nc(-c3cc(F)ccc3O)nc(N[C@@H]3CNC[C@H]3C(C)(C)O)c2cc1OC | 1.23 µM | 2.8 µM | 1.63 µM | 3.16 µM | 1.65 µM | 3.03 µM | 1.27 µM | 3.62 µM | 1.44 µM | 3.02 µM | 1.51 µM | 3.07 µM | 2.09 µM | 4.7 µM | 2.15 µM | 5.14 µM | 1.51 µM | 2.96 µM | 1.35 µM | 2.75 µM
9 | O=C(Nc1cccc(-n2cc(-c3ccncc3)c(-c3cc(O)cc(Cl)c3)n2)c1)c1cc(C(F)(F)F)cc(C(F)(F)F)c1 | 1.42 µM | 3.32 µM | 2.32 µM | 5.74 µM | 3.16 µM | > 100 µM | 1.61 µM | 5.01 µM | – | – | 2.86 µM | > 100 µM | 2.38 µM | > 100 µM | 2.5 µM | 12.7 µM | 5.19 µM | > 100 µM | 3.23 µM | > 100 µM
10 | NS(=O)(=O)c1ccc(-c2cc3ccncc3cc2OCc2ccccc2)cc1 | 14.6 µM | > 25 µM | > 21.2 µM | > 25 µM | > 25 µM | > 25 µM | 6.58 µM | > 23.4 µM | > 22.9 µM | > 25 µM | 14.5 µM | > 25 µM | > 13.6 µM | > 25 µM | > 18.2 µM | > 25 µM | 16.4 µM | > 25 µM | > 14.8 µM | > 25 µM
11 | COC(=O)[C@H]1CCCN1C(=O)[C@H]1CCCN1C(=O)[C@@H](Cc1c[nH]c2ccccc12)NC(=S)Nc1cc(C(F)(F)F)cc(C(F)(F)F)c1 | 1.68 µM | 3.09 µM | 1.83 µM | 3.49 µM | 1.8 µM | 3.58 µM | 2.53 µM | 5.65 µM | – | – | 2.16 µM | 5.35 µM | 2.38 µM | 7.6 µM | 2.34 µM | 6.38 µM | 2.6 µM | 6.79 µM | 1.95 µM | 3.77 µM
12 | COc1ccc(NC(=O)C2CCC(CNS(=O)(=O)c3ccccc3)CC2)cc1OC (configuration not stated) | 35.3 µM | > 100 µM | – | – | > 100 µM | > 100 µM | 0.542 µM | > 100 µM | > 100 µM | > 100 µM | > 100 µM | > 100 µM | > 100 µM | > 100 µM | > 100 µM | > 100 µM | > 100 µM | > 100 µM | > 100 µM | > 100 µM
